# Data reported in US20240043450A1, “NEW COMPOUND” (JANSSEN PHARMACEUTICA NV, priority 2020, published 2024).
# Assays:
# TNF = experiment: PBMC assay: TNF cytokine levels in supernatant of LPS-stimulated human PBMCs (MSD); format: cell-based; conditions: Homo sapiens, PBMC, 30 min compound pre-incubation, 100 ng/ml LPS for 6 hrs
# Description: (§1) Peripheral venous blood was collected from healthy individuals and human peripheral blood mononuclear cells (PBMCs) were isolated from blood by Ficoll-Histopaque (Sigma-Aldrich, A0561) density gradient centrifugation. After isolation, PBMCs were stored in liquid nitrogen for later use. Upon thawing, PBMC cell viability was determined in growth medium (RPMI media supplemented with 10% fetal bovine serum, 1% Pen-Strep and 1% L-glutamine). Compounds were spotted in a 1:3 serial dilution in DMSO and diluted to the final concentration in 30 μl medium in 96 well plates (Falcon, 353072). PBMCs were added at a density of 7.5×10^4 cells per well and incubated for 30 min in a 5% CO2 incubator at 37° C. LPS stimulation was performed by addition of 100 ng/ml LPS (final concentration, Invivogen, tlrl-smlps) for 6 hrs followed by collection of cellular supernatant and the analysis of IL-1β […] and TNF cytokines levels […] via MSD technology according to manufacturers' guidelines (MSD, K15A0H).
# The IC50 values (for IL-1β) and EC50 values (TNF) were obtained on compounds of the invention/examples, and are depicted in the following table: […]
# NLRP3 = target: T1, NLRP3 (Homo sapiens, UniProt Q96P20); experiment: PBMC assay: IL-1β levels in supernatant of LPS-stimulated human PBMCs (MSD); format: cell-based; conditions: 30 min compound pre-incubation, 100 ng/ml LPS for 6 hrs, IL-1β in supernatant, read-out: IL-1B IC50
# T1 construct: human peripheral blood mononuclear cells (PBMCs) were isolated from blood; endogenous in cells; host or cells: primary human PBMCs from healthy donors
# Description: The activity of a compound according to the present invention can be assessed by in vitro methods.
# as §1, with “Compounds were spotted in a 1:3 serial dilution in DMSO and diluted to the final concentration in 30 μl medium in 96 well plates (Falcon, 353072).” left out
# T1 sequence (Q96P20 whole entry): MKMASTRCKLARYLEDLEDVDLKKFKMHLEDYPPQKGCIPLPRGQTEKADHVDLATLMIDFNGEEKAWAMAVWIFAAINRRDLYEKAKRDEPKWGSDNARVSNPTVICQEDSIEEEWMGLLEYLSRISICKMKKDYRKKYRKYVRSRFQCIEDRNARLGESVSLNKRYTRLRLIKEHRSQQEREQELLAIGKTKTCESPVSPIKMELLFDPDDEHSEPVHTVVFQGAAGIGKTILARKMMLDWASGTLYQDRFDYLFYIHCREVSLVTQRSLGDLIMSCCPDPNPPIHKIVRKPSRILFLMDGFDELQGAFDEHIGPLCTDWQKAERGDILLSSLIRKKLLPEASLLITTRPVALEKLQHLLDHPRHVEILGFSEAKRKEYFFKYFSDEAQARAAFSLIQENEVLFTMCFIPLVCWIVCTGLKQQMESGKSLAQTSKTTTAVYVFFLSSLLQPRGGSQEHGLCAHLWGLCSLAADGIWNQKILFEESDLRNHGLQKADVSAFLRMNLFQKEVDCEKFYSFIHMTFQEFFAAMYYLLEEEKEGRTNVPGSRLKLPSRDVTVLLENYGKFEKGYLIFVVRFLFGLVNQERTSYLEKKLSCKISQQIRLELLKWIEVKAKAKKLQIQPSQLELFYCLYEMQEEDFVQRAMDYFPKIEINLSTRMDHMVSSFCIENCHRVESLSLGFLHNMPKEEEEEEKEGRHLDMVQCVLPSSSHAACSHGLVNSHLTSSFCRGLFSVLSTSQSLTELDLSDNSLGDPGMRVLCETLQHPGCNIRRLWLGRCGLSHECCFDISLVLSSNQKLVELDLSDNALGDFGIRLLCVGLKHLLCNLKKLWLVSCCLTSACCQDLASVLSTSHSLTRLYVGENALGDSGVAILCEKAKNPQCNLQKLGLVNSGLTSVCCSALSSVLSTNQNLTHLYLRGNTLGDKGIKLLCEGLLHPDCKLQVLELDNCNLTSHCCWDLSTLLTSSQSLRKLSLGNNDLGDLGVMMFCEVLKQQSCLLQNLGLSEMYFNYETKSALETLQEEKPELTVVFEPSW
EC50 (TNF) [nM],IC50 (NLRP3) [nM],melting point [°C],Structure (SMILES)
> 20000,469,181.4,CC(C)c1nn(CC(=O)N[C@H]2C[C@@](C)(O)C2)c(=O)c2sc(C(F)(F)F)nc12 [F-21]
17900,1450,206.7,CC(C)c1nn(CC(=O)Nc2cc(Cl)c(=O)n(C(F)F)c2)c(=O)c2sc(C3CC3)nc12 [F-48]
17400,907,170.1,CC(C)c1nn(CC(=O)Nc2ccc(C(F)F)nc2)c(=O)c2sc(C3CC3)nc12 [F-45]
11900,215,206.5,CC(C)c1nn(CC(=O)Nc2ccc3nccn3n2)c(=O)c2sc(C(C)(F)F)nc12 [F-53]
> 20000,443,292.7,CC(C)c1nn(CC(=O)Nc2cc(F)[nH]c(=O)c2)c(=O)c2sc(C3CC3)nc12 [F-55]
18600,274,186.5,CCc1nc2c(C(C)C)nn(CC(=O)Nc3ccnnc3)c(=O)c2s1 [F-10]
9620,102,194.9,CC(C)c1nn(CC(=O)Nc2ccc3ncoc3c2)c(=O)c2sc(C3CC3)nc12 [F-43]
> 20000,462,223.8,"CC(C)c1nn(CC(=O)Nc2ccc3nnc(C(F)(F)F)n3n2)c(=O)c2sc(C3CC3)nc12 [F-49, 2-(2-cyclopropyl-4-isopropyl-7-oxo-thiazolo[4,5-d]pyridazin-6-yl)-N-[3-(trifluoromethyl)-[1,2,4]triazolo[4,3-b]pyridazin-6-yl]acetamide]"
> 20000,265,280.9,"CC(C)c1nn(CC(=O)Nc2cc(Br)c3nncn3c2)c(=O)c2sc(C3CC3)nc12 [F-41, N-(8-bromo-[1,2,4]triazolo[4,3-a]pyridin-6-yl)-2-(2-cyclopropyl-4-isopropyl-7-oxothiazolo[4,5-d]pyridazin-6(7H)-yl)acetamide]"
> 20000,128,216.6,CCNc1nc2c(C(C)C)nn(CC(=O)N[C@H]3C[C@@](C)(O)C3)c(=O)c2s1 [F-18]
